Data: patent publication US20100068816A1, “Genetically engineered herbicide resistance for maintaining axenic cultures” (TransAlgae Ltd, priority 2008, published 2010)

test system: Chlamydomonas pds transformants; assay: Contamination test: Chlamydomonas pds transformant alone and in mixed culture, with and without flurochloridone; type: cell-based, Chlamydomonas reinhardtii; settings: flurochloridone addition; liquid medium, one week, daily counts under the microscope; mixed culture 10:1
Source text: (§1) FIGS. 8A and B: Contamination test of Chlamydomonas pds transformant II5 versus the cyanobacterium Synechococcus PCC 7942. Chlamydomonas transformants and the cyanobacterium Synechococcus PCC7942 were inoculated alone and in mixed culture in a ratio of 10:1 with and without flurochloridone. Aliquots were removed daily and counted under the microscope. 8A represents the Chlamydomonas pds transformants counts and 8B represents the cyanobacterium Synechococcus PCC7942 counts.
(§2) To address the question of contaminants, the Chlamydomonas pds transformants were mixed with the cyanobacterium Synechococcus PCC7942, which is known to overtake ponds. A Chlamydomonas pds transformant and the cyanobacterium Synechococcus PCC7942 were inoculated alone and in mixed cultures with and without flurochloridone. The mixed culture was inoculated in a ratio of 10:1 Chlamydomonas pds transformants: Synechococcus PCC7942 wild type, respectively. The cells were allowed to grow for one week in liquid medium, with daily removal of aliquots. Contaminants versus target Chlamydomonas-cells were counted under the microscope (FIG. 8).

Row | Compound | growth of the resistant pds Chlamydomonas cells
1 | O=C1C(Cl)C(CCl)CN1c1cccc(C(F)(F)F)c1 (stereo not shown) [flurochloridone] | unaffected

test system: wild-type algae; assay: Butafenacil dose response on wild type algae and cyanobacteria (FIG. 11); type: cell-based; settings: 10^−6M or 10^−7M
Procedure: FIG. 11 A Chemical structure of butafenacil. B. Butafenacil dose response on wild type algae and cyanobacteria. Strains were cultured at OD648=0.1 in 24 well plate and butafencil was applied at concentrations of 10^−5,6,7M. After a week OD648 of the cultures was measured.
Cells are allowed to generate to visible colonies. After incubation for a week the most resistant colonies are chosen. To ascertain gene transformation PCR analysis is preformed on wild type and butafenacil or flumioxazin resistant colonies.

Row | Compound | wild-type algae growth
2 | C=CCOC(=O)C(C)(C)OC(=O)c1cc(-n2c(=O)cc(C(F)(F)F)n(C)c2=O)ccc1Cl [butafenacil] | inhibit
3 | C#CCN1C(=O)COc2cc(F)c(N3C(=O)C4=C(CCCC4)C3=O)cc21 [flumioxazin] | inhibit

test system: Synechococcus PCC7002 and Synechococcus WH7803; assay: Mixed culture of ppo transformed algae and cyanobacteria contaminants, with and without herbicide; type: cell-based; settings: mixed culture 10:1 transformant:cyanobacteria, one week liquid culture
Procedure: To address the question of contaminants, the transformed algae are mixed with cyanobacteria such as Synechococcus PCC7002 and Synechococcus WH7803, which are known to overtake ponds. The transformant and the cyanobacteria are cultured alone and in mixed cultures with and without butafenacil or flumioxazin. The mixed culture is plated in a ratio of 10:1 transformant: cyanobacteria respectively. The cells are allowed to grow for one week in liquid culture, with daily removal of aliquots. These aliquots are counted under the microscope and the ratio of contaminants vs. algae is calculated.

Row | Compound | contaminants in mixed cultures containing the herbicide
4 | C=CCOC(=O)C(C)(C)OC(=O)c1cc(-n2c(=O)cc(C(F)(F)F)n(C)c2=O)ccc1Cl [butafenacil] | decreasing numbers of contaminants
5 | C#CCN1C(=O)COc2cc(F)c(N3C(=O)C4=C(CCCC4)C3=O)cc21 [flumioxazin] | decreasing numbers of contaminants

test system: zooplankton (e.g. Arthemia sp.); assay: Zooplankton survivorship under CO2 and herbicide treatment; type: in vivo; settings: microtubule-inhibiting herbicides
Procedure: (§3) To quantify CO2 effects on plankton survivorship we incubate 81 L vessels of the algae Pavlova lutheri, Isochrysis CS-177, Nannochloropsis oculata CS-179, Nannochloropsis like CS-246, Nannochloropsis salina CS-190, Tetraselmis suecica, Tetraselmis chuii and Nannochloris sp or cyanobacteria Synechococcus PCC7002, Synechococcus WH-7803, Thermosynechococcus elongatus BP-1 with or without zooplankton (e.g. Arthemia sp.). The control and zooplankton treated containers are bubbled with air, 1%, 5% and 14% CO2 together with specific herbicides that are applied at the appropriate concentrations. Algal cell density and zooplankton counts are done on each treatment over a 10 day period. Throughout the experiment pH is maintained at 7.0-8.0, which allows phytoplankton growth.

Row | Compound | effect on zooplankton
6 | COP(=S)(NC(C)C)Oc1ccc(C)cc1[N+](=O)[O-] (stereo not shown) [amiprophos-methyl] | killed
7 | CCCCN(CC)c1c([N+](=O)[O-])cc(C(F)(F)F)cc1[N+](=O)[O-] [benefin] | killed
8 | CCOP(=S)(NC(C)CC)Oc1cc(C)ccc1[N+](=O)[O-] (stereo not shown) [butamiphos] | killed
9 | CCC(C)Nc1c([N+](=O)[O-])cc(C(C)(C)C)cc1[N+](=O)[O-] (stereo not shown) [butralin] | killed
10 | COC(=O)c1c(Cl)c(Cl)c(C(=O)OC)c(Cl)c1Cl [chlorthal-dimethyl] | killed
11 | CCN(CC)c1c([N+](=O)[O-])cc(C(F)(F)F)c(N)c1[N+](=O)[O-] [dinitramine] | killed
12 | CSC(=O)c1c(C(F)F)nc(C(F)(F)F)c(C(=O)SC)c1CC(C)C [dithiopyr] | killed
13 | C=C(C)CN(CC)c1c([N+](=O)[O-])cc(C(F)(F)F)cc1[N+](=O)[O-] [ethalfluralin] | killed
14 | CCC(CC)Nc1c([N+](=O)[O-])cc(C)c(C)c1[N+](=O)[O-] [pendimethalin] | killed
15 | C#CC(C)(C)NC(=O)c1cc(Cl)cc(Cl)c1 [propyzamide] | killed
16 | CC(C)N(Cc1ccccc1)C(=O)C(C)(C)C [tebutam] | killed
17 | COC(=O)c1c(C(F)F)nc(C(F)(F)F)c(C2=NCCS2)c1CC(C)C [thiazopyr] | killed
18 | CCCN(CCC)c1c([N+](=O)[O-])cc(C(F)(F)F)cc1[N+](=O)[O-] [trifluralin] | killed

test system: resistant pds transformed algae; assay: Slow released herbicide embedded in photobioreactor lining: resistant transformed algae; type: cell-based; settings: herbicide on inner side of photobioreactor, final concentration 10^−5 to 10^−7M if fully released
Source text: (§4) A hydrophobic herbicide/biocide such as flurochloridone or fluridone and/or butafenacil flumioxazin is/are applied using a volatile organic solvent such as xylene on the inner side of the polyethylene algae photobioreactor or pond liner, such that if it were fully released into the subsequent growth medium the concentration would reach a final concentration of 10^−5 to 10^−7M. Transgenically resistant algae or cyanobacteria versus wild-type are inoculated in the treated photobioreactors after the solvent has evaporated. In commercial production, the herbicides can be added during production of the polyethyelene.
(§5) Culture aliquots are removed daily and cell densities of wild types and the transformed algae or cyanobacteria are compared.

Row | Compound | growth of the resistant pds transformed algae
19 | C=CCOC(=O)C(C)(C)OC(=O)c1cc(-n2c(=O)cc(C(F)(F)F)n(C)c2=O)ccc1Cl [butafenacil] | unaffected
20 | C#CCN1C(=O)COc2cc(F)c(N3C(=O)C4=C(CCCC4)C3=O)cc21 [flumioxazin] | unaffected
21 | O=C1C(Cl)C(CCl)CN1c1cccc(C(F)(F)F)c1 (stereo not shown) [flurochloridone] | unaffected
22 | fluridone | unaffected

test system: Nannochloropsis cells transformed with pSI103-PDS; assay: Cross resistance of Nannochloropsis cells transformed with pSI103-PDS; type: cell-based, Nannochloropsis oculata; settings: Nannochloropsis transformants selected on ASW + 1 μM flurochloridone
Procedure: FIG. 3. Nannochloropsis cells were transformed with the pSI103-PDS construct (right panel) as well as control cells which were not transformed with DNA (left panel) plated on artificial sea water (ASW)+1 μM flurochloridone.
Nannochloropsis oculata CS179 cells were transformed with the PSI103-PDS construct using the ECM 830 electroporator (BTX Instrument Division, Harvard Apparatus, Inc., Holliston, Mass., USA) as described above. After transformation algae were plated on ASW+F/2 media (http://www.marine.csiro.au/microalgae/methods/) containing 10^−7M flurochloridone. After two weeks, algal colonies both from the transformation and the mock were replated on ASW+10^−6M flurochloridone plates. This allowed differentiation between false positives and true resistant clones (FIG. 3). This material was used in Example 4.

Row | Compound | cross resistance of the flurochloridone resistant material
23 | CNc1cnn(-c2cccc(C(F)(F)F)c2)c(=O)c1Cl [norflurazon] | cross resistant
24 | O=C(Nc1ccc(F)cc1)c1cccc(Oc2cccc(C(F)(F)F)c2)n1 [picolinafen] | cross resistant
25 | fluridone | cross resistant

test system: wild type algae and the cyanobacteria; assay: Effect of microtubule-inhibiting herbicides on wild type algae and cyanobacteria; settings: not given
Procedure: as §3

Row | Compound | effect on wild type algae and cyanobacteria
26 | COP(=S)(NC(C)C)Oc1ccc(C)cc1[N+](=O)[O-] (stereo not shown) [amiprophos-methyl] | do not harm
27 | CCCCN(CC)c1c([N+](=O)[O-])cc(C(F)(F)F)cc1[N+](=O)[O-] [benefin] | do not harm
28 | CCOP(=S)(NC(C)CC)Oc1cc(C)ccc1[N+](=O)[O-] (stereo not shown) [butamiphos] | do not harm
29 | CCC(C)Nc1c([N+](=O)[O-])cc(C(C)(C)C)cc1[N+](=O)[O-] (stereo not shown) [butralin] | do not harm
30 | COC(=O)c1c(Cl)c(Cl)c(C(=O)OC)c(Cl)c1Cl [chlorthal-dimethyl] | do not harm
31 | CCN(CC)c1c([N+](=O)[O-])cc(C(F)(F)F)c(N)c1[N+](=O)[O-] [dinitramine] | do not harm
32 | CSC(=O)c1c(C(F)F)nc(C(F)(F)F)c(C(=O)SC)c1CC(C)C [dithiopyr] | do not harm
33 | C=C(C)CN(CC)c1c([N+](=O)[O-])cc(C(F)(F)F)cc1[N+](=O)[O-] [ethalfluralin] | do not harm
34 | CCC(CC)Nc1c([N+](=O)[O-])cc(C)c(C)c1[N+](=O)[O-] [pendimethalin] | do not harm
35 | C#CC(C)(C)NC(=O)c1cc(Cl)cc(Cl)c1 [propyzamide] | do not harm
36 | CC(C)N(Cc1ccccc1)C(=O)C(C)(C)C [tebutam] | do not harm
37 | COC(=O)c1c(C(F)F)nc(C(F)(F)F)c(C2=NCCS2)c1CC(C)C [thiazopyr] | do not harm
38 | CCCN(CCC)c1c([N+](=O)[O-])cc(C(F)(F)F)cc1[N+](=O)[O-] [trifluralin] | do not harm

test system: Synechococcus PCC7942; assay: Contamination test: Synechococcus PCC7942 alone and in mixed culture, with and without flurochloridone; type: cell-based; settings: flurochloridone addition; liquid medium, one week, daily counts under the microscope; mixed culture 10:1
Source text: as §1, §2

Row | Compound | growth of Synechococcus PCC7942 cells
39 | O=C1C(Cl)C(CCl)CN1c1cccc(C(F)(F)F)c1 (stereo not shown) [flurochloridone] | completely inhibited

test system: ppo transformant algae; assay: Dose response of ppo transformants versus wild type alga; type: cell-based; settings: 0.1 μM, 0.3 μM, 0.5 μM in 24 well plates
Procedure: A dose response curve is generated for the wild type alga and for the transformants. The wild types and the transformant algae are plated in their medium in 24 well plates with increasing concentrations of 0.1 μM, 0.3 μM, 0.5 μM butafenacil or flumioxazin. Algae are plated without the herbicide as a control. […] The most resistant colonies are chosen for further analysis.

Row | Compound | growth of transformants bearing the resistance gene in dose response
40 | C=CCOC(=O)C(C)(C)OC(=O)c1cc(-n2c(=O)cc(C(F)(F)F)n(C)c2=O)ccc1Cl [butafenacil] | ability to grow at higher concentrations than the wild type
41 | C#CCN1C(=O)COc2cc(F)c(N3C(=O)C4=C(CCCC4)C3=O)cc21 [flumioxazin] | ability to grow at higher concentrations than the wild type

test system: Hydrilla verticillata; assay: not given; settings: fluridone resistant biotypes; cited from earlier work

Row | Compound | biomass accumulation, of the content in untreated plants | β-carotene accumulation, of the content in untreated plants [%]
42 | fluridone | up to 72% | ≤ 77

same assay, conditions: susceptible population; cited from earlier work

Row | Compound | biomass accumulation, of the levels found in untreated plants [%] | β-carotene accumulation, of the levels found in untreated plants [%]
43 | fluridone | 10 | 10

test system: wild type culture; assay: Slow released herbicide embedded in photobioreactor lining: wild type culture; type: cell-based; settings: herbicide on inner side of photobioreactor, final concentration 10^−5 to 10^−7M if fully released
Source text: as §4, §5

Row | Compound | growth of the wild type culture
44 | C=CCOC(=O)C(C)(C)OC(=O)c1cc(-n2c(=O)cc(C(F)(F)F)n(C)c2=O)ccc1Cl [butafenacil] | completely inhibited
45 | C#CCN1C(=O)COc2cc(F)c(N3C(=O)C4=C(CCCC4)C3=O)cc21 [flumioxazin] | completely inhibited
46 | O=C1C(Cl)C(CCl)CN1c1cccc(C(F)(F)F)c1 (stereo not shown) [flurochloridone] | completely inhibited
47 | fluridone | completely inhibited
